Results reported in the NIST ThermoML archive (doi:10.1021/je0601457).

Assay: xn = mol fraction of the nth substance listed

Cc1cnccn1 [2-methylpyrazine] + O=C=O
Fluid (supercritical or subcritical phases), Linear displacement technique
Conditions	mass density [kg/m3]
294.85 K, 5860 kPa, x1 = 0.033	869
294.85 K, 6830 kPa, x1 = 0.017	749
294.85 K, 7760 kPa, x1 = 0.033	904
294.85 K, 8900 kPa, x1 = 0.017	777
294.85 K, 13000 kPa, x1 = 0.017	821
294.85 K, 13690 kPa, x1 = 0.033	969
294.95 K, 2450 kPa, x1 = 0.857	935
294.95 K, 3790 kPa, x1 = 0.857	942
294.95 K, 6860 kPa, x1 = 0.857	947
294.95 K, 11520 kPa, x1 = 0.857	950
295.05 K, 3900 kPa, x1 = 0.624	948
295.05 K, 7000 kPa, x1 = 0.624	952
295.05 K, 9660 kPa, x1 = 0.624	956
295.05 K, 14760 kPa, x1 = 0.624	965
295.35 K, 5310 kPa, x1 = 0.156	908
295.35 K, 7620 kPa, x1 = 0.156	910
295.35 K, 9620 kPa, x1 = 0.156	911
295.45 K, 5450 kPa, x1 = 0.264	901
295.45 K, 7900 kPa, x1 = 0.264	911
295.45 K, 12450 kPa, x1 = 0.264	926
295.45 K, 16590 kPa, x1 = 0.264	934
295.55 K, 6790 kPa, x1 = 0.122	998
295.55 K, 8790 kPa, x1 = 0.122	1010
295.55 K, 10590 kPa, x1 = 0.122	1019
295.55 K, 14410 kPa, x1 = 0.122	1036
295.85 K, 7140 kPa, x1 = 0.081	779
295.85 K, 9760 kPa, x1 = 0.081	781
295.85 K, 13170 kPa, x1 = 0.081	781
296.15 K, 7590 kPa, x1 = 0.339	964
296.15 K, 10550 kPa, x1 = 0.339	969
296.15 K, 16100 kPa, x1 = 0.339	976
296.35 K, 6310 kPa, x1 = 0.023	607
296.35 K, 6660 kPa, x1 = 0.023	614
296.35 K, 8930 kPa, x1 = 0.023	642
297.25 K, 5790 kPa, x1 = 0.062	854
297.25 K, 7550 kPa, x1 = 0.062	873
297.25 K, 9550 kPa, x1 = 0.062	894
297.25 K, 12830 kPa, x1 = 0.062	914
298.85 K, 6860 kPa, x1 = 0.039	804
298.85 K, 8520 kPa, x1 = 0.039	831
298.85 K, 11690 kPa, x1 = 0.039	873
301.55 K, 7930 kPa, x1 = 0.023	578
301.55 K, 10070 kPa, x1 = 0.023	604
301.55 K, 11520 kPa, x1 = 0.023	620
304.15 K, 6790 kPa, x1 = 0.156	795
304.15 K, 8030 kPa, x1 = 0.156	905
304.15 K, 10210 kPa, x1 = 0.156	906
304.15 K, 12210 kPa, x1 = 0.156	911
304.45 K, 7140 kPa, x1 = 0.091	913
304.45 K, 7830 kPa, x1 = 0.122	970
304.45 K, 8660 kPa, x1 = 0.091	927
304.45 K, 10170 kPa, x1 = 0.091	940
304.45 K, 10660 kPa, x1 = 0.122	989
304.45 K, 13690 kPa, x1 = 0.122	1006
304.55 K, 5690 kPa, x1 = 0.264	882
304.55 K, 6660 kPa, x1 = 0.264	885
304.55 K, 10380 kPa, x1 = 0.264	896
304.55 K, 13620 kPa, x1 = 0.264	907
305.05 K, 3620 kPa, x1 = 0.624	922
305.05 K, 5000 kPa, x1 = 0.624	926
305.05 K, 7480 kPa, x1 = 0.624	931
305.05 K, 10860 kPa, x1 = 0.624	937

Liquid, linear displacement
Conditions	mass density [kg/m3]
294.85 K, x1 = 0.017	721
294.85 K, x1 = 0.033	864
294.95 K, x1 = 0.857	930
295.05 K, x1 = 0.624	944
295.35 K, x1 = 0.156	906
295.45 K, x1 = 0.264	883
295.55 K, x1 = 0.122	947
295.85 K, x1 = 0.081	779
296.15 K, x1 = 0.339	928
296.35 K, x1 = 0.023	599
297.25 K, x1 = 0.062	845
298.85 K, x1 = 0.039	787
301.55 K, x1 = 0.023	549
304.15 K, x1 = 0.156	901
304.45 K, x1 = 0.091	901
304.45 K, x1 = 0.122	954
304.55 K, x1 = 0.264	881
